Reference: US20100256145A1, “USE OF KCNQ POTASSIUM CHANNEL OPENERS FOR REDUCING SYMPTOMS OF OR TREATING DISORDERS OR CONDITIONS WHEREIN THE DOPAMINERGIC SYSTEM IS DISRUPTED” (H. LUNDBECK A/S, priority 2007, published 2010)

What was measured:
basal locomotor activity = experiment: Basal locomotor activity inhibition (motility inhibition) in the rat; assay type: in vivo; conditions: basal locomotor activity without stimulant (sedative properties), std. dev. in brackets
Procedure: Subjects. Male Wistar rats (Taconic, Denmark) weighing 170-240 g are used. The animals are housed under a 12-hr light/dark cycle under controlled conditions for regular in-door temperature (21±2° C.) and humidity (55±5%) with food and tap water available ad libitum.
Experimental procedure. The experiment is made in normal light conditions in an undisturbed room. […] Immediately after injection of the stimulant, the rats are placed individually in the test cages that are placed in a U-frame, equipped with 4 infrared light sources and photocells. The light beams cross the cage 4 cm above the cage floor. Recording of a motility count requires interruption of adjacent light beams, thus avoiding counts induced by stationary movements of the rat. Motility (counts) is recorded for a period of 2 hours. […] The 100 percent effect of stimulant drug is accordingly calculated to be total motility counts minus baseline. […] The percent responses are converted to percent inhibition from which ED50 values are calculated by means of log-probit analyses. In a parallel set of data, the potential sedative properties (exemplified by basal locomotor activity inhibition) of the test compounds are evaluated using essentially the same procedure with the exception of not administering the stimulant drug at the initiation of locomotor assessment.

[1] = test system: conditioned avoidance response; experiment: Conditioned avoidance response in rats; assay type: in vivo, rat
Procedure: Subjects. Male Wistar rats (Taconic, Denmark) weighing 150 g at the beginning of the study are used. The rats are housed in pairs and maintained on a 12 h light/dark cycle (lights on 06:00). The animals are fed once daily (approx. 6 pellets/rat) in order to keep the rats at 80% of their free-feeding weight. Water is available ad libitum. Temperature (21±1° C.) and relative humidity (55±5%) are automatically controlled.
Experimental procedure. Conditioned avoidance testing is conducted using four automated shuttle-boxes (ENV-010M, MED-Associates) each placed in a sound-attenuated chamber. Each box is divided into two compartments by a partition with an opening. The position of the animal and crossings from one compartment to the other are detected by two photocells placed on either side of the dividing wall. Upon presentation of the conditioned stimuli (CS), tone and light, the animals have 10s to cross to the other compartment of the shuttle-box in order to turn the CS off (end the trial) and avoid the appearance of the unconditioned stimulus (UCS). If the rat remains in the same compartment for more than 10s, the UCS is presented as 0.5 mA scrambled foot-shocks until escape is performed or 10s in maximal duration. The following behavioural variables are evaluated: avoidance (response to CS within 10s); escape (reponse to CS+UCS); escape failures (failure to respond); intertrial crosses and locomotor activity. The rats are habituated to the shuttle-box 3 min before each test session. During training each test session consists of 30 trials with intertrial intervals varying randomly between 20s and 30s. Training is carried out until the rats display an avoidance of 80% or more, on 3 consecutive days. A test is preceded by a pre-test the day before giving rise to a baseline value for each animal, thus the animals serve as their own control. Seven to eight rats are used at each dose level. A parallel control group receiving the vehicle of the test compound is also included.
Administration of compound. […] All compounds are dissolved in a vehicle of 10% 2-hydroxy-propyl-beta-cyclodextrin (isotonic with glucose, pH 5-7).
Statistical analyses. The effects of compounds on avoidance and escape failure behaviours are statistically evaluated by means of two-way repeated measures ANOVA followed by post hoc comparisons (Student-Newman-Keuls Method) when appropriate. P-levels <0.05 are considered statistically significant.

[2] = test system: choice of the large-but-delayed reward (impulsivity); experiment: Rat T-maze procedure: large-but-delayed vs small-but-immediate reward; assay type: in vivo; conditions: juvenile Wistar rats
Procedure: Subjects. male Wistar AF rats (28-41 days old) (Centre d′Elevage René Janvier, France) were used. […] During the whole study, tap water was provided ad libitum. Food was restricted to 5-10 g/day/animal in order to maintain animals at 65-75% of their free feeding weight
Experimental procedure. The experiments were performed in two identical T-maze apparatus constructed from opaque grey plastic tubing and consisting of a starting runway (30 cm long) and two arms (35 cm long) each leading to a rectangular black plastic goal box (18 cm large, 30 cm wide, 10 cm high). Removable grey plastic guillotine doors could be inserted into the vertical clefts, situated at the entry of the starting runway and at each end of the arms. One of the goal-boxes (left or right, depending on the rats) was constantly provided with a large reward, the other with a small reward. Large and small rewards consisted, respectively, of 5 and 1 pellets (20 mg, Technical & Scientific Equipment GmbH, Germany). The pellets were placed in a translucent food-cup before each trial.
First phase: habituation. Animals were first subjected to two 5-min sessions of habituation. The rat was gently introduced in the starting runway, which then was closed with a guillotine door inserted in the cleft (referred to as c0 in FIG. 1). The animal was allowed to freely explore the apparatus and to eat food rewards placed in the food cups.
Second phase: pretraining. After a door was placed in the cleft c2 near each goal-box, the rat was introduced in the starting runway. When it entered one of the two arms, a door was inserted behind it in the cleft c1 near the choice area and the door placed in cleft c2 was removed. As soon as the animal entered the goal-box, the door was placed again in the cleft c2. The rat was removed from the goal-box as soon as the pellets were eaten (usually within less than 1 min). The animal was then returned to its home cage for an intertrial interval of 2 to 3 min. Each rat was submitted one to five times/day to five trials sessions in this procedure. Training was initiated when the rat selected the arm giving access to the large reward in more than 14 out of 15 trials.
Third phase: training. Rats underwent one to five times/day five trials training sessions during which a delay was introduced before access to the large reward. After a door was placed in the cleft c2 near each goal-box, the rat was introduced in the starting runway. When it entered one of the two arms, a second door was inserted behind it in the cleft c1 near the choice area, so that rat selecting the arm leading to the large reward could be detained in this arm for a period (referred to as the waiting delay) before having access to the reinforcement. Otherwise, if the animal selected the arm leading to the small reward, the door placed in the cleft c2 was immediately opened, allowing the animal to enter the goal-box. At the beginning of training, the waiting delay was 30 sec. Then, if the percentage of choices of the large and delayed reward remained high (i.e. ≧40%) for more than six sessions, it was increased to 45 sec, and if necessary to 60 sec, 90 sec and finally 120 sec. Drug testing began when the animal selected the large and delayed reward in two trials out of five (or less) in two consecutive sessions and in one trial out of five (or less) in the following session.
Drug testing was conducted over six consecutive test-sessions of five trials each, during which the access to the large reward was preceded by the waiting delay. Test sessions were: Two control pre-drug sessions: control pre-drug session 1 and control pre-drug session 2; Two drug sessions: drug session 1 and drug session 2; Two control post-drug sessions: control post-drug session 1 and control post-drug session 2.

[3] = Rattus norvegicus, sc, read-out: % inhibition of avoidance (Std. dev.) Relative to baseline

CCOC(=O)Nc1ccc(NCc2ccc(F)cc2)cc1N [Compound 1, reference compound]
Motility inhibition ED50 (mg/kg) ± std. dev. (basal locomotor activity): >8.1 mg/kg | inhibition at 5 mg/kg [1, 3]: 1% | inhibition at 10 mg/kg [1, 3]: 59% | Escape failures (effect on motor performance) ([1]; rats, all tested doses (2.5-10 mg/kg s.c.), data not shown): None of the tested doses cause any incidences of escape failures | % Choice of the large but delayed reward on Drug sessions ([2]; 5 mg/kg s.c. 30 min before the test): 26.7 ± 3.3 % | % Choice of the large but delayed reward on Control sessions ([2]; placebo administered before control (pre-drug and post-drug) sessions of the same group): 10.8 ± 2.0%
